Entries after “also recorded” stand apart in the source; their conditions may differ.
Key:
[1] = system: Male Sprague Dawley rats; settings: rat, in vivo
[2] = pharmacokinetics, blood content and blood brain barrier penetration after sc administration; settings: rats, 2.0 mg/kg sc
[3] = smoking cessation; cited from earlier work

Compound	nicotine self-administration analysed in 30-min intervals [1]	time to maximal concentration in blood and brain [2] [min]	cessation rates in most clinical trials [3]
C[C@H]1CNC(=N)N1CCc1cccnc1 [Compound 5, (S)-5-Methyl-1-(2-(pyridin-3-yl)ethyl)imidazolidin-2-imine]	decreased nicotine self-administration during the first 30 min but not during the remaining 90-min period; also recorded: reducing nicotine self-administration only in the first 30 min	≤ 10	–
CC(NC(C)(C)C)C(=O)c1cccc(Cl)c1 (stereo not shown) [bupropion]	–	–	15-25%
c1cnc2cc3c(cc2n1)[C@@H]1CNC[C@H]3C1 [varenicline]	–	–	23-40%

From US20200179361A1, “COMPOSITIONS, METHODS OF USE, AND METHODS OF TREATMENT” (TORREY PINES INSTITUTE FOR MOLECULAR STUDIES, priority 2017, published 2020)
